In patent US12195427B2, “MASP-2 inhibitors and methods of use” (priority 2018, dated 2025):
Counter-ions that a name gives are not always drawn.

Target: MASP-2 CCP2-SP (Homo sapiens (Human), UniProt O00187)
Assay: MASP-2 co-crystallization, X-ray crystallography and structure analysis (H-bonds, van der Waals contacts);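 on Ligand-pharmacophore element distance, pharmacophore element C2: distance from averaged pharmacophore element to bound ligand; missing value means element absent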;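 on Ligand-pharmacophore element distance, pharmacophore element C3: distance from averaged pharmacophore element to bound ligand; missing value means element absent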;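 on Ligand-pharmacophore element distance, pharmacophore element C4: distance from averaged pharmacophore element to bound ligand; missing value means element absent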;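 on Ligand-pharmacophore element distance, pharmacophore element C5: distance from averaged pharmacophore element to bound ligand; missing value means element absent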
Parameters: van der Waals contact distance, MASP-2 HIS 483 atom CD2 / van der Waals contact distance, MASP-2 HIS 483 atom NE2 / van der Waals contact distance, SER 654 C to compound atom / van der Waals contact distance, SER 654 O to compound atom / van der Waals contact distance, TRP 655 C to compound atom / van der Waals contact distance, MASP-2 GLY 528 atom CA / van der Waals contact distance TRP 655 atom CZ3 / van der Waals contact distance TRP 655 atom N / van der Waals contact distance TRP 655 atom CE3 / van der Waals contact distance GLY 656 atom C / van der Waals contact distance GLY 656 atom CA / van der Waals contact distance GLY 656 atom O / van der Waals contact distance, MASP-2 TYR 607 atom CD1 / van der Waals contact distance, MASP-2 PRO 606 atom O / d(C3,CA1) / d(CA1,N1)2 / d(H4,O1) / d(H4,O2) / d(O1,O2) / d(CA1,O2) / d(CA6,O1) / d(CA6,O2) / d(CA1,C5) / d(O2,H3) / d(N2,C2) / d(CA5,N2) / d(N2,C4) / d(N2,C6) / d(N2,CA3) / d(N2,O3) / d(O4,H2): unit not given beside the values
Details: for Ligand-pharmacophore element distance, pharmacophore element C2 / Ligand-pharmacophore element distance, pharmacophore element C3 / Ligand-pharmacophore element distance, pharmacophore element C4 / Ligand-pharmacophore element distance, pharmacophore element C5 / Ligand-pharmacophore element distance, pharmacophore element C6 / Ligand-pharmacophore element distance, pharmacophore element C7 / Ligand-pharmacophore element distance, pharmacophore element CA1 / Ligand-pharmacophore element distance, pharmacophore element CA2 / Ligand-pharmacophore element distance, pharmacophore element CA3 / Ligand-pharmacophore element distance, pharmacophore element CA4 / Ligand-pharmacophore element distance, pharmacophore element CA5 / Ligand-pharmacophore element distance, pharmacophore element CA6: Table A4-1
Outline: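 First, CCP2-SP constructs with or without a 6His tag are produced in E. coli. Crystals are then soaked once or twice with inhibitor, cryoprotected in 20% glycerol or frozen directly, and diffracted at synchrotron beamlines. Phasing uses molecular replacement with parts of 1Q3X.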

[1] = Table A5-1 pharmacophore: distance between elements, S2/S1 region
[2] = Table A5-2 pharmacophore distance, S3/S4 region
[3] = Table A7-1, between pharmacophore elements of the bound compound
[4] = Table A7-2, between pharmacophore elements of the bound compound
[5] = Table A8-6, nearest protein atom in cell to the left

Chain of MASP-2 CCP2-SP (O00187 445-686): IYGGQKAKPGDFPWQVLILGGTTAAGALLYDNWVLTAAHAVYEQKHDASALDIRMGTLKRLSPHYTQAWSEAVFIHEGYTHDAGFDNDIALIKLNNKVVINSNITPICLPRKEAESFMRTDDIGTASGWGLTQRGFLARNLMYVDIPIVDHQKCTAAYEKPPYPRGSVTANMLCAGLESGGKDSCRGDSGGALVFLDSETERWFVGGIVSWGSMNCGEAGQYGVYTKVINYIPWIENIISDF
Chain of MASP-2 CCP2-SP (O00187 364-432 partner): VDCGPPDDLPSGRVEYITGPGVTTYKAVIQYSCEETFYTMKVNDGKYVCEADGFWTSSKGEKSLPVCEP

C[C@H](NC(=O)[C@@H](CCc1ccccc1)NCc1ccc(C(=O)N2CCOCC2)cc1)C(=O)NCc1ccc(C(=N)N)cc1.Cl.Cl [1153_B]
Ligand-pharmacophore element distance, pharmacophore element C2: 10.14
Ligand-pharmacophore element distance, pharmacophore element C3: 0
Ligand-pharmacophore element distance, pharmacophore element C4: 0
Ligand-pharmacophore element distance, pharmacophore element C5: 0
Ligand-pharmacophore element distance, pharmacophore element C6: 0
Ligand-pharmacophore element distance, pharmacophore element C7: 0
Ligand-pharmacophore element distance, pharmacophore element CA1: 0.39
Ligand-pharmacophore element distance, pharmacophore element CA2: 0.58
Ligand-pharmacophore element distance, pharmacophore element CA3: 0
Ligand-pharmacophore element distance, pharmacophore element CA4: 0
Ligand-pharmacophore element distance, pharmacophore element CA5: 6.17
Ligand-pharmacophore element distance, pharmacophore element CA6: 0
d(CA1,N1) [1]: 3.54
d(CA1,O1) [1]: 5.51
d(CA1,O2) [1]: 8.18
d(H4,O1) [1]: 5.77
d(H4,O2) [1]: 7.90
d(O1,O2) [1]: 9.57
d(CA5,N2) [2]: 3.75
d(N2,C2) [2]: 8.53
d(N2,CA2) [2]: 5.06
d(N2,O3) [2]: 9.72
d(O2,H3) [2]: 3.10
d(O2,N2) [2]: 2.99
a(CA1, O1, O2) (Table A6-1 pharmacophore angle): 144.91
a(O1, O2, H4) (Table A6-1 pharmacophore angle): 92.62
A(N1, CA1, O1) a) (Table A6-1 pharmacophore angle, all compounds with protonatable center N1 except Methyl-amino-pyridine): 171.50
a(O1, O2, H3) (Table A6-2 pharmacophore angle): 25.95
a(O1, O2, N2) (Table A6-2 pharmacophore angle): 44.76
a(O2, N2, C2) (Table A6-2 pharmacophore angle): 163.28
a(O2, N2, CA2) (Table A6-2 pharmacophore angle): 150.51
a(O2, N2, O3) (Table A6-2 pharmacophore angle): 165.3
Pharmacophore torsion angle a(H4, O1, O2, H3) [3]: 70.64
Pharmacophore torsion angle a(H4, O1, O2, N2) [3]: 133.70
Pharmacophore torsion angle a(N1, CA1, O2, H4) [3]: 56.56
Pharmacophore torsion angle a(O1, H4, O2, CA1) [3]: 23.08
Pharmacophore torsion angle a(O1, O2, N2, C2) [3]: −139.94
Pharmacophore torsion angle a(O1, O2, N2, CA2) [4]: 76.90
Pharmacophore torsion angle a(O1, O2, N2, CA5) [4]: −161.98
Pharmacophore torsion angle a(O1, O2, N2, O3) [4]: −144.09
Pharmacophore protein distance to MET_658 (first MET_658 column) (Table A8-6, 6th residue column, nearest protein atom in cell to the left): 2.53
Pharmacophore protein distance to MET_658 (second MET_658 column) (Table A8-6, 9th residue column, nearest protein atom in cell to the left): 3.26
Pharmacophore protein distance to GLY_528 [5]: 3.41
Pharmacophore protein distance to PHE_529 [5]: 3.23
Pharmacophore protein distance to PRO_608 [5]: 4.41
Pharmacophore protein distance to SER_611 [5]: 2.46
Pharmacophore protein distance to TRP_655 (Table A8-6, pharmacophore elements C6, CA3, O3, H1, nearest protein atom in cell to the left): 3.42

C[C@H](NC(=O)[C@H]1C[C@@H](c2ccccc2)CCN1)C(=O)NCc1cc(Cl)ccc1O.Cl [1078_6]
Ligand-pharmacophore element distance, pharmacophore element C2: 1.09
Ligand-pharmacophore element distance, pharmacophore element C3: 0
Ligand-pharmacophore element distance, pharmacophore element C4: 0
Ligand-pharmacophore element distance, pharmacophore element C5: 0.48
Ligand-pharmacophore element distance, pharmacophore element C6: 0
Ligand-pharmacophore element distance, pharmacophore element C7: 0
Ligand-pharmacophore element distance, pharmacophore element CA1: 1.31
Ligand-pharmacophore element distance, pharmacophore element CA2: 0.65
Ligand-pharmacophore element distance, pharmacophore element CA3: 0
Ligand-pharmacophore element distance, pharmacophore element CA4: 0
Ligand-pharmacophore element distance, pharmacophore element CA5: 0
Ligand-pharmacophore element distance, pharmacophore element CA6: 0
d(CA1,C5) [1]: 3.11
d(CA1,O1) [1]: 5.90
d(CA1,O4) [1]: 2.75
d(H4,O1) [1]: 2.75
d(O4,H2) [1]: 0.98
d(N2,C2) [2]: 1.49
d(N2,CA2) [2]: 5.49
a(C5, CA1, O1) (Table A6-1 pharmacophore angle): 152.72
a(CA1, O4, H2) (Table A6-1 pharmacophore angle): 126.69
a(O1, CA1, O4) (Table A6-1 pharmacophore angle): 67.49
Pharmacophore torsion angle a(C5, CA1, O1, H4) [3]: −22.50

Cc1nc(N)ccc1CNC(=O)[C@H](C)NC(=O)[C@H]1C[C@H](Cc2ccccc2Br)CN1 [compound 1372, (2R,4S)—N—((S)-1-(((6-Amino-2-methylpyridin-3-yl)methyl)amino)-1-oxopropan-2-yl)-4-(2-bromobenzyl)pyrrolidine-2-carboxamide Di-trifluoroacetate salt]
H-bond distance to MASP-2 ASP 627 atom OD2 (Table A1 (H-Bonds), ASP 627 OD2): 3.17
H-bond distance to MASP-2 GLY 656 atom N (Table A1 (H-Bonds), GLY 656 N): 3.23
H-bond distance to MASP-2 GLY 656 atom O (Table A1 (H-Bonds), GLY 656 O): 2.81
H-bond distance to MASP-2 SER 628 atom O (Table A1 (H-Bonds), SER 628 O): 3.18
H-bond distance to MASP-2 SER 654 atom O (Table A1 (H-Bonds), SER 654 O): 2.97
H-bond distance to MASP-2 SER 657 atom O (Table A1 (H-Bonds), SER 657 O): 2.87
van der Waals contact distance, MASP-2 HIS 483 atom CD2 (Table A2-1): 3.77
van der Waals contact distance, MASP-2 HIS 483 atom NE2 (Table A2-1): 3.67
van der Waals contact distance, MASP-2 GLY 528 atom CA (Table A2-2): 3.83
van der Waals contact distance, MASP-2 TYR 607 atom CD1 (Table A2-4): 3.77
van der Waals contact distance, MASP-2 amino acid atom to compound atom (Table A2-7: SER 628 (CB, O, OG)): 3.68
van der Waals contact distance, VAL 653 CG1 to compound atom (Table A2-11): 3.32
van der Waals contact distance, TRP 655 CA to compound atom (Table A2-12): 3.48
van der Waals contact distance TRP 655 atom CE3 (Table A2-13, MASP-2 TRP 655 CE3, compound atom in line below): 3.54
van der Waals contact distance TRP 655 atom CZ3 (Table A2-13, MASP-2 TRP 655 CZ3): 3.48
